# Columns and labels:
# NCI-H358 cells = test: Inhibition of NCI-H358 cell proliferation under 3D non-anchored conditions (CellTiter-Glo 3D); format: cell-based; conditions: Homo sapiens, NCI-H358 cells (KRAS G12C mutation), 120 hours
# Protocol: The following method was used to determine the effects of the compounds of the present invention on NCI-H358 cell proliferation under three-dimensional (3D) non-anchored conditions. NCI-H358 cells (containing KRAS G12C mutation) were purchased from the Cell Resource Center of Shanghai Institutes for Biological Sciences, Chinese Academy of Sciences, and cultured in RPMI 1640 medium containing 10% fetal bovine serum, 100 U penicillin, 100 μg/mL streptomycin and 1 mM Sodium Pyruvate. The activities of the cells were determined by CellTiter-Glo® 3D Cell Viability Assay Kit (Promega, Art. No. G9683).
# The experimental method was operated according to the steps in the kit instruction, which can be briefly described as follows: the test compounds were first dissolved in DMSO to prepare storage solutions of 10 mM, and then diluted with culture mediums to prepare test samples. The final concentrations of the compounds were 10000 nM to 0.15 nM. Cells in logarithmic phase were inoculated in an ultra-low adsorption 384-well cell culture plate (PerkinElmer, #3830) with 2000 cells per well, and the test compounds were added and cultured for 120 hours. After the culture was completed, 30 μL of CellTiter-Glo 3D detection solution was added to each well, shaken for 30 minutes and then stood for 120 minutes. Then, a Luminescence mode was used to read the luminescence values of each well of the samples on a microplate reader. By comparing with the numerical value of a control group (0.1% DMSO), the percentage inhibition rates of the compounds at each concentration were calculated, and the IC50 values of the compounds inhibiting cell proliferation were obtained by performing nonlinear regression analysis with logarithmic values of the compound concentration-inhibition rate by GraphPad Prism 5 software, which can be seen in Table 4.
# p-ERK1/2 in DLD-1 cells = test: Inhibition of p-ERK1/2 in DLD-1 cells (Cisbio Advanced phospho-ERK1/2 kit); format: cell-based; conditions: Homo sapiens; DLD-1 cells (KRAS G13D mutation), hEGF 5 nM stimulation; read-out: IC50 (nM) Inhibition on p-ERK½ in DLD-1 cells
# Source text: The following method was used to determine the inhibition activities of the compounds of the present invention on p-ERK1/2 in DLD-1 cells. The Advanced phospho-ERK1/2 (Thr202/tyr2O4) kit (Art. No. 64AERPEH) from Cisbio was used in this method. Please refer to the kit instruction for detailed experimental operations. DLD-1 cells (containing KRAS G13D mutation) were purchased from the Cell Resource Center of Shanghai Institutes for Biological Sciences, Chinese Academy of Sciences.
# The experimental process can be briefly described as follows: DLD-1 cells were cultured in RPMI 1640 complete medium containing 10% fetal bovine serum, 100 U penicillin, 100 μg/mL streptomycin and 1 mM Sodium Pyruvate. DLD-1 cells were plated in a 96-well plate at 30,000 cells per well, after cultured overnight in 5% CO2 incubator at 37° C. with complete culture medium. The test compounds were dissolved in DMSO to prepare storage solutions of 10 mM, and then diluted with RPMI 1640 basic mediums. 90 μL of RPMI 1640 basic mediums containing the test compounds at the corresponding concentration were added to each well. The final concentrations of the test compounds in the reaction system were 10,000 nM to 0.15 nM, and were placed in a cell culture incubator for 3 hours and 40 minutes. Subsequently, 10 μL of hEGF (purchased from Roche, Art. No. 11376454001) prepared with RPMI 1640 basic medium was added to a final concentration of 5 nM, and placed in the incubator for culturing for 20 minutes. The cell supernatant was discarded, and the cells were washed with PBS on ice-bath. Then, 45 μl of 1× cell phospho/total protein lysis buffer (component of Advanced phospho-ERK1/2 kit) was added to each well for lysis. The 96-well plate was placed on ice for 0.5 hours to lyse, and then the lysate was detected according to the instruction of the Advanced phospho-ERK1/2 (Thr202/tyr2O4) kit. Finally, the microplate reader was used in […] mode to measure the fluorescence intensity of each well emitting wavelengths of 620 nm and […] under the excitation wavelength of 304 nm, and the fluorescence intensity ratio 665/620 in each well was calculated. By comparing with the fluorescence intensity ratio of a control group (0.1% DMSO), the percentage inhibition rates of the test compounds at each concentration were calculated, and the IC50 values of the compounds were obtained by performing nonlinear regression analysis with logarithmic values of the compound concentration-inhibition rate by GraphPad Prism 5 software, which can be seen in Table 3.
# [1] = Pharmacokinetic evaluation in ICR mice; format: in vivo; conditions: male, mouse, plasma, PO 10 mg/kg
# Source text: ICR normal mice were used as test animals, and LC/MS/MS was used to determine the drug concentrations at different moments in plasma of ICR mice by intragastric administration. The pharmacokinetic behavior of the compounds of the present invention in ICR mice was studied to evaluate the pharmacokinetic characteristics of the above compounds.
# Compound 4, Compound 26 and Compound 32.
# ICR mice, male, 27.8-38 g, were purchased from Zhejiang Vital River Laboratory Animal Technology Co., Ltd.
# An appropriate amount of the compound was weighed, and DMA:30% Solutol HS-15:Saline=5:5:90 (v/v/v) was used as the solvent to prepare a fully dissolved solution, and then administered to obtain a 1 mg/mL colorless solution.
# The ICR mice in the intragastric group of each compound to be tested (nine mice in each group) were fasted overnight followed by intragastric administration (administration dosage was 10 mg/kg and the administration volume was 10 mL/kg), and ate 4 hours after administration.
# 0.1 mL of blood was collected via orbit before administration and 0.25 hour, 0.5 hour, 1 hour, 2 hours, 4 hours, 8 hours, 12 hours, and 24 hours after administration, and placed in EDTA-K2 anticoagulant tubes. The collected blood samples were placed on ice, and plasma was separated by centrifugation (centrifugation condition: 1500 g, 10 minutes). The collected plasma samples were stored at −40˜−20° C. before analysis.
# LC-MS/MS was used to determine the content of the compound to be tested in mouse plasma after intragastric administration.
compound,measurement,setting,value
"COc1cc2nc(C)nc(N[C@H](C)c3cccc(C#N)c3C)c2cc1N1CCC(C)(O)CC1 [Compound 11, (R)-3-(1-((6-(4-hydroxy-4-methylpiperidin-1-yl)-7-methoxy-2-methylquinazolin-4-yl)amino)ethyl)-2-methylbenzonitrile]",IC50,NCI-H358 cells,71.4 nM
same,IC50,p-ERK1/2 in DLD-1 cells,29.7 nM
"COc1cc2nc(C)nc(N[C@H](C)c3cccc(C#N)c3C)c2cc1N1CCOCC1 [Compound 1, (R)-3-(1-((7-methoxy-2-methyl-6-morpholinoquinazolin-4-yl)amino)ethyl)-2-methylbenzonitrile]",IC50,NCI-H358 cells,78.3 nM
same,IC50,p-ERK1/2 in DLD-1 cells,48.7 nM
"COc1cc2nc(C)nc(N[C@H](C)c3cccc(C#N)c3C)c2cc1N1CCC2(CCOCC2)CC1 [Compound 4, (R)-3-(1-((7-methoxy-2-methyl-6-(3-oxa-9-azaspiro[5.5]undecan-9-yl)quinazolin-4-yl)amino)ethyl)-2-methylbenzonitrile]",IC50,NCI-H358 cells,7 nM
same,AUC(0-t),[1]; read-out: Area under curve AUC0-t,5820 ng·h/mL
same,half-life,[1]; read-out: Half-life T1/2 (converted),51 min
same,Cmax,[1]; read-out: Plasma concentration Cmax,2310 ng/mL
"COc1cc2nc(C)nc(N[C@H](C)c3cccc(C#N)c3C)c2cc1N1CCC2(CC1)CN(C(C)=O)C2 [Compound 19, (R)-3-(1-((6-(2-acetyl-2,7-diazaspiro[3.5]nonan-7-yl)-7-methoxy-2-methylquinazolin-4-yl)amino)ethyl)-2-methylbenzonitrile]",IC50,NCI-H358 cells,21.2 nM
same,IC50,p-ERK1/2 in DLD-1 cells,46.3 nM
"COc1cc2nc(C)nc(N[C@H](C)c3cccc(C#N)c3C)c2cc1N1CCN(C(C)=O)CC1 [Compound 2, (R)-3-(1-((6-(4-acetylpiperazin-1-yl)-7-methoxy-2-methylquinazolin-4-yl)amino)ethyl)-2-methylbenzonitrile]",IC50,NCI-H358 cells,49.6 nM
same,IC50,p-ERK1/2 in DLD-1 cells,65.4 nM
"COc1cc2nc(C)nc(N[C@H](C)c3cccc(C#N)c3C)c2cc1N1CCC2(CC1)COC2 [Compound 5, (R)-3-(1-((7-methoxy-2-methyl-6-(2-oxa-7-azaspiro[3.5]nonan-7-yl)quinazolin-4-yl)amino)ethyl)-2-methylbenzonitrile]",IC50,NCI-H358 cells,10.7 nM
same,IC50,p-ERK1/2 in DLD-1 cells,66.1 nM
"COc1cc2nc(C)nc(N[C@H](C)c3cccc(C#N)c3C)c2cc1N1CCC2(CCN(C)C2=O)CC1 [Compound 7, (R)-3-(1-((7-methoxy-2-methyl-6-(2-methyl-1-oxo-2,8-diazaspiro[4.5]decan-8-yl)quinazolin-4-yl)amino)ethyl)-2-methylbenzonitrile]",IC50,p-ERK1/2 in DLD-1 cells,31.1 nM
"COc1cc2nc(C)nc(N[C@H](C)c3cccc(C#N)c3C)c2cc1N1CCC(C#N)CC1 [Compound 8, (R)-1-(4-((1-(3-cyano-2-methylphenyl)ethyl)amino)-7-methoxy-2-methylquinazolin-6-yl)piperidine-4-carbonitrile]",IC50,p-ERK1/2 in DLD-1 cells,38.2 nM

# From patent publication US20240382475A1, “Quinazoline Derivative, Or Preparation Method Therefor And Use Thereof” (Zhejiang Hisun Pharmaceutical Co., Ltd., priority 2021, published 2024)
